From paper PMC12185579, “Impact of nephrotoxins and oxidants on survival and transport function of hiPSC-derived renal proximal tubular cells” (Archives of Toxicology, 2025)
Several values for one entry are separate records, joined by “and”; a condition that tells them apart may be missing. Equal entries are not always repeated. Where two headings read alike, the source gives them in different places.

What was measured:
[1] = tested on: hiPSC; assay: EdU incorporation (proliferation), hiPSC; format: cell-based, human; conditions: 24 h, hiPSC's IC20 and IC50
Description: (§1) To investigate the effect of toxins on the proliferation rate, the incorporation of EdU into S-phase cells was determined using the EdU-Click 488 assay according to the manufacturer’s protocol (Baseclick GmbH, Tutzing, Germany) as reported earlier (Mboni-Johnston et al. [2023]).

[2] = tested on: hiPSC; assay: TUNEL assay (apoptosis), hiPSC; format: cell-based, human; conditions: 24 h, IC20 and IC50 of the hiPSC
Description: (§2) To verify whether the substances analyzed induce apoptosis in the cells at different stages of differentiation, the TUNEL (terminal deoxynucleotidyl transferase-mediated dUTP-fluorescein nick-end labeling) assay was performed with cells grown on coverslips using the In-Situ Cell Death Detection Assay Kit (Roche GmbH, Grenzach-Wyhlen, Germany) according to the manufacturer’s instructions. The TUNEL assay visualizes free hydroxyl groups from fragmented DNA produced during apoptosis by labeling them with modified nucleotides through an enzymatic reaction (Gavrieli et al. [1992]). The coverslips were mounted with […]® Antifade Mounting Medium containing DAPI and sealed with nail polish. Fluorescence images were acquired using a fluorescence microscope (Olympus BX43 Upright Microscope, Olympus, Shinjuku, Tokyo, Japan) at 200-fold magnification and analyzed using ImageJ 1.51j8 (Schneider et al. [2012]). TUNEL-positive cells were referenced to the total number of cells and normalized to the untreated control.

[3] = tested on: diffD3; assay: TUNEL assay (apoptosis), diffD3; format: cell-based, human; conditions: diffD3, 24 h, IC20 and IC50 of the hiPSC
Description: as §2

[4] = tested on: diffD9; set-up: method as in Mboni-Johnston et al. [2023]; conditions: ref Mboni-Johnston et al. [2023]; cited from earlier work
[5] = tested on: diffD9; assay: TUNEL assay (apoptosis), diffD9; format: cell-based, human; conditions: diffD9, 24 h, IC20 and IC50 of the hiPSC (CisPt: a higher concentration added)
Description: as §2

[6] = tested on: hiPSC, diffD3 and diffD9; assay: Cell viability of all differentiation stages, with and without pan-caspase inhibitor QVD; format: cell-based, human; conditions: 10 µM QVD
Description: (§3) After 24 h of exposure, the viability of the undifferentiated, differentiating, and differentiated cells was examined using the Alamar Blue Assay (O'Brien et al. [2000]), as described previously (Mboni-Johnston et al. [2023]). The relative viability of the cells in the corresponding untreated controls was set to 100%.

[7] = tested on: diffD9; assay: FITC-albumin uptake at diffD9 after treatment at diffD3; format: cell-based, human; conditions: treated 24 h at diffD3 with hiPSC's IC20 and IC50, analyzed at diffD9
Description: Cells were incubated with serum-free medium with/without 100 µg/ml FITC-albumin for 2 h at 37 °C, and uptake was stopped with ice-cold PBS. Cells were then harvested from Matrigel-coated wells with trypsin/EDTA, and albumin uptake was analyzed by flow cytometry [Becton Dickinson, Accuri™ C6 plus (Heidelberg, Germany)] as previously reported (Mboni-Johnston et al. [2023]).

[8] = tested on: hiPSC; set-up: method as in Mboni-Johnston et al. [2023]; conditions: as given in Fig. 7 legend, value from former study ref Mboni-Johnston et al. [2023], cited from earlier work
[9] = tested on: diffD9; assay: EdU incorporation (proliferation), diffD9; format: cell-based, human; conditions: diffD9, 24 h, hiPSC's IC20 and IC50
Description: as §1

[10] = tested on: stem cell markers, PTEC markers and transporters mRNA in diffD9; assay: RT-PCR marker gene expression at diffD9 after treatment at diffD3; format: cell-based, human; conditions: for expression of megalin and cubilin: treated at diffD3, analyzed at diffD9
Description: (§4) RNA was isolated using the RNeasy Mini Kit and RNase-free DNase Set (Qiagen, Venlo, The Netherlands) according to the manufacturer’s protocol as reported previously (Mboni-Johnston et al. [2023]). The primer sequences (Table S1, supplement) used for the mRNA expression analyses were designed with the help of NCBI (https://www.ncbi.nlm.nih.gov/nuccore/) and validated for specificity. At the end of the run, data were analyzed using CFX Manager software (v3.1, Bio-Rad Laboratories, Hercules, CA, USA) according to the manufacturer’s instructions. All samples were run with three technical replicates. The Cq values obtained for the genes of interest were first normalized to the mean Cq values obtained for the housekeeping genes ACT-β and RPL-32 and then for the control samples and expressed as a fold of this mean value. Changes in gene expression of ≤ 0.5- and ≥ twofold were considered biologically relevant.

[11] = tested on: senescence-associated genes (β-GAL, IL-8, p21) in diffD9; assay: RT-PCR senescence-associated genes, diffD9; format: cell-based, human; conditions: diffD9, 48 h after a 24 h treatment
Description: as §4

[12] = tested on: diffD3; assay: EdU incorporation (proliferation), diffD3; format: cell-based, human; conditions: diffD3, 24 h, hiPSC's IC20 and IC50
Description: as §1

[13] = tested on: senescence-associated genes (β-GAL, IL-8, p21) in diffD3; assay: RT-PCR senescence-associated genes, diffD3; format: cell-based, human; conditions: diffD3, 48 h after a 24 h treatment
Description: as §4

[14] = tested on: senescence-associated genes (β-GAL, IL-8, p21) in hiPSC; assay: RT-PCR senescence-associated genes, hiPSC; format: cell-based, human; conditions: 48 h after a 24 h treatment
Description: as §4

[15] = tested on: hiPSC, diffD3 and diffD9; set-up: method as in Mboni-Johnston et al. [2023]; conditions: diffD3, differentiated PTELC ref Mboni-Johnston et al. [2023]; cited from earlier work
[16] = tested on: diffD9; assay: FITC-albumin uptake (flow cytometry) in diffD9 treated at diffD9; format: cell-based, human; conditions: diffD9, 24 h treatment (menadione: IC50)
Description: The effect of toxins on the transport function of hiPSC-derived PTELC was examined by adding fluorescently labeled bovine serum albumin (FITC-BSA) (Sigma-Aldrich, 10 mg/ml) to the culture medium. Cells were incubated with serum-free medium with/without 100 µg/ml FITC-albumin for 2 h at 37 °C, and uptake was stopped with ice-cold PBS. Cells were then harvested from Matrigel-coated wells with trypsin/EDTA, and albumin uptake was analyzed by flow cytometry [Becton Dickinson, Accuri™ C6 plus (Heidelberg, Germany)] as previously reported (Mboni-Johnston et al. [2023]).

[17] = tested on: hiPSC; assay: Alamar Blue cell viability, undifferentiated hiPSC; format: cell-based, human; conditions: for IC20 / IC50: Homo sapiens; for IC20: read-out: hiPSC's IC20
Description: as §3

[18] = tested on: diffD3 (hiPSC differentiating into PTELC); assay: Alamar Blue cell viability, differentiating cells day 3; format: cell-based, human; conditions: for IC50 of diffD3, fold lower than those of hiPSC and diffD9: Alamar Blue, 24 h; for IC50: Homo sapiens, diffD3, 24 h treatment
Description: as §3

[19] = tested on: diffD9 (hiPSC differentiated into PTELC); assay: Alamar Blue cell viability, differentiated cells day 9; format: cell-based, human; conditions: diffD9, 24 h treatment; for IC20: read-out: IC20 (inhibitory concentration where 20% of the cells are dead)
Description: as §3

[20] = tested on: PTEC markers and transporters mRNA in diffD9; assay: RT-PCR marker gene expression in diffD9 treated at diffD9; format: cell-based, human; conditions: diffD9, 24 h; for Aqp-1 mRNA expression: IC20 and IC50, vs untreated diffD9; for Pept-1 mRNA expression: IC50 (tBHQ not statistically significant); for Meg (megalin) mRNA expression: Mena IC20 and IC50, tBHQ IC50 (not statistically significant)
Description: as §4

[21] = tested on: human liver cell line HepG2; set-up: method as in Chen and Cederbaum [1997]; conditions: HepG2, after 18 h of incubation ref Chen and Cederbaum [1997]; read-out: IC50 (cytotoxicity); cited from earlier work
[22] = tested on: endothelial cells; set-up: method as in Karimi et al. [2019]; conditions: endothelial cells ref Karimi et al. [2019]; read-out: IC50 (cell viability); cited from earlier work
[23] = tested on: mammary epithelial cells; set-up: method as in Jin et al. [2016]; conditions: mammary epithelial cells ref Jin et al. [2016]; read-out: IC50 (cell viability); cited from earlier work
[24] = as given in Fig. 7 legend, concentration used to treat diffD3 for 24 h
[25] = as given in Fig. 7 legend, concentration used to treat diffD3 for 24 h, read-out: hiPSC's IC50
[26] = hiPSC, 24 h treatment, read-out: IC50 (cell viability, Alamar Blue)

SMILES	EdU incorporation (proliferation) vs untreated control [1]	frequency of TUNEL-positive cells [3]	albumin uptake [7]	EdU incorporation (cells in S-phase) vs untreated control [9]	mRNA expression of senescence-associated genes (β-GAL, IL-8, p21) [11]	EdU incorporation (proliferation) vs untreated control [12]	mRNA expression of senescence-associated genes (β-GAL, IL-8, p21) [13]	albumin transport (FITC-albumin uptake) [16]	IC20 [17, 24]	IC50 [17, 25]	IC50 [17, 26]	IC50 of diffD3, fold lower than those of hiPSC and diffD9 [18]	IC50 [18]	IC50 ([19]; Homo sapiens, 24 h)	IC20 ([19]; Homo sapiens)	IC50 [19]	Aqp-1 mRNA expression [20]	Pept-1 mRNA expression [20]	Meg (megalin) mRNA expression [20]	expression of megalin and cubilin [10]	also measured
N.N.[Cl][Pt][Cl] [CisPt, cisplatin]	inhibited the likely proliferation-associated EdU incorporation in hiPSC in a dose-dependent manner	increased in a dose-dependent manner	strong effect	not affected	no extensive expression	not affected	only p21 was significantly higher expressed in diffD3	–	–	–	–	–	–	–	–	–	–	–	–	–	frequency of TUNEL-positive cells [2]: increased in a dose-dependent manner; albumin uptake capacity of PTELC [4]: reduced the albumin uptake capacity; frequency of TUNEL-positive cells [5]: increased in a dose-dependent manner; cell viability under co-treatment with pan-caspase inhibitor QVD vs mono-treatment [6]: significant restoration of cell viability to almost control level; IC20 ([8]; read-out: hiPSC's IC20): 0.3 µM; IC50 ([8]; read-out: hiPSC's IC50): 1 µM; long-term changes in marker transcripts ([10]; treated 24 h at diffD3 with iPSCs' IC20, analyzed at diffD9): all but two transcripts being significantly reduced; mRNA expression of senescence-associated genes (β-GAL, IL-8, p21) [14]: no extensive expression; relative sensitivity of differentiation stages [15]: hiPSC and diffD3 were more sensitive to CisPt than differentiated PTELC
CC1=CC(=O)c2ccccc2C1=O [Mena, menadione]	no significant differences in EdU incorporation	significantly increased	no effect on albumin transport itself	no significant differences in EdU incorporation	IL-8 levels significantly increased	inhibited proliferation	–	significant decrease	3 µM	6 µM	16.2 µM	about four	4.1 µM	17.6 µM	11 µM	17 µM	significant and dose-dependent decrease	increased significantly	significant and dose-dependent decrease	low but significant effect	IC50 ([19]; listed as Menadione): 18 µM; Nanog mRNA expression ([20]; IC20): significantly increased; CD13 mRNA expression ([20]; IC50): increased significantly; Pept-2 mRNA expression ([20]; IC50): reduced expression; IC50 [21]: 18 to 19 µM
CC(C)(C)c1cc(O)ccc1O [tBHQ, tert-butylhydroquinone]	no significant differences in EdU incorporation	significantly increased	–	no significant differences in EdU incorporation	–	inhibited proliferation	IL-8 levels significantly increased	increased the transport	4 µM	8 µM	18.5 µM	7- to 12	2.8 µM	34.5 µM	15 µM	34 µM and 35 µM	significant dose-dependent decrease	increased above twofold	increased above twofold	neither showed a relevant effect	sensitivity of hiPSC compared to diffD9 ([17]; Alamar Blue, 24 h): twice as sensitive; IC50 [22]: 60 µM; Cad-16 mRNA expression ([20]; IC50, statistically significant): increased above twofold; IC50 [23]: 50 µM
